From article PMC11206203, “Peptide macrocyclisation via intramolecular interception of visible-light-mediated desulfurisation” (Chemical Science, 2024) come the findings set out here.

For data set [1], the target named is T1, MCL-1 (Homo sapiens, UniProt Q07820).
T1 construct: MCL-1 (residues 172-327) was expressed and purified as described previously; made in house
The experiment in a line: Competitive inhibition, fluorescence anisotropy, MCL-1 and fluorophore-labelled WT BH3 sequence. It is filed as binding. To be noted: competition FA; MCL-1 (residues 172-327), tracer FAM-Ahx-BID / fluorophore-labelled WT BH3 sequence; 20 mM Tris, 150 mM NaCl, pH 7.6; 384-well plates, tested in triplicate; excitation 480 nm, emission 535 nm; fit to sigmoidal logistic model; Fig. S160; read-out: inhibitory potency (competitive inhibition, fluorescence anisotropy). An excerpt:
Finally, to explore internal peptide ‘stapling’ using this strategy, we selected a region of a BH3 protein – BID80–102, that binds MCL-1 to regulate apoptosis.[53,72] This PPI is known to play a significant role in cancer development and progression.[53,72] Three sequences (54–56) were synthesised with alGly and Cys positioned to afford either an internal i, i + 4 staple (57, 59; Fig. 5 and ESI ^†) or i, i + 7 staple (58; Fig. 5 and ESI ^†), fixing the length of either one or two full helical turns of the peptide, respectively. In addition, peptide macrocycle 26 is a head-to-tail macrocycle representing the i, i + 4 binding region of these longer sequences. The staple for all three peptides was successfully formed under the standard conditions, albeit in lower yield than the N- to C-terminal cyclisations previously explored (57–59). The alpha-helical structure of peptide 59 was assessed via CD spectroscopy. […]
All samples were prepared in 20mM Tris, 150 mM NaCl, pH 7.6 solutions. All assays were performed using 384 -well plates (Greiner Bio -one, UK) and tested in triplicate using an EnVisionTM 2103 MultiLabel plate reader (Perkin Elmer; Waltham, MA, USA). […] Measured data were processed and analysed as previously described. […]

Data set [2] is described as follows: Same desulfurative C-C cyclisation as series A (TCEP, Ir photocatalyst, blue light) with N-terminal Cys and C-terminal allylglycine (reversed pentapeptides). The conditions noted are these: the molecule shown is the open-chain precursor; 17-membered ring; 6 M Gdn.HCl, 0.1 M Na2HPO4 pH 7.5-8.0 / MeCN 9:1; 0.5 mM; 25.0 °C.
The nature of data set [3]: C(sp3)-C(sp3) bond formation by visible-light-mediated Cys desulfurisation: alanyl radical adds to terminal alkene of allylglycine (or O-allyl Ser, pentenylGly, acrylamide); TCEP 50 eq (25 mM), (Ir[dF(CF3)ppy]2(dtbpy))PF6 1 mol%, 450 nm blue LED; unprotected peptides. To be noted: from C=CC[C@H](NC(=O)[C@H](C)NC(=O)[C@H](CC(C)C)NC(=O)[C@H](Cc1c[nH]cn1)NC(=O)[C@H](CCCNC(=N)N)NC(=O)[C@H](C)NC(=O)[C@@H](NC(=O)[C@H](CC(N)=O)NC(=O)[C@H](CCCNC(=N)N)NC(=O)[C@@H](NC(=O)[C@@H](NC(=O)[C@H](CC(=O)O)NC(=O)[C@H](CCC(=O)O)NC(C)=O)[C@@H](C)CC)[C@@H](C)CC)[C@@H](C)CC)C(=O)N[C@H](C(=O)NCC(=O)N[C@@H](CC(=O)O)C(=O)N[C@@H](CS)C(=O)N[C@@H](CCCC)C(=O)N[C@@H](CC(=O)O)C(=O)N[C@@H](CCCNC(=N)N)C(=O)N[C@@H](CO)C(=O)N[C@H](C(=O)N[C@@H](Cc1c[nH]c2ccccc12)C(N)=O)[C@@H](C)CC)C(C)C; 17-membered ring; 6 M Gdn.HCl, 0.1 M Na2HPO4 pH 7.5-8.0 / MeCN 9:1; 0.5 mM; 25.0 °C.

The nature of data set [4]: CD spectroscopy, alpha-helical structure. It is filed as physicochemical. The conditions noted are these: alpha-helical content by CD; Fig. S159.

Where a SMILES comes first, the peptide text is derived from it. [ ]: non-standard residue; d: D form. Nle = CCCC[C@H](N)C(=O)O

T1 sequence (Q07820 172-327): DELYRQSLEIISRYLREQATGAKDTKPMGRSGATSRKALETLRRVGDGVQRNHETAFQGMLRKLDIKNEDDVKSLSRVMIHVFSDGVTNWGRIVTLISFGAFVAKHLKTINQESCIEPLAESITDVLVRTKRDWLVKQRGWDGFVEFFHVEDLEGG

As for `CCCC[C@H](NC(=O)[C@H](CO)NC(=O)[C@H](CC(=O)O)NC(=O)CNC(=O)[C@@H](NC(=O)[C@H](CCC(N)=O)NC(=O)[C@H](C)NC(=O)[C@H](CC(C)C)NC(=O)[C@H](Cc1c[nH]cn1)NC(=O)[C@H](CCCNC(=N)N)NC(=O)[C@H](C)NC(=O)[C@@H](NC(=O)[C@H](CC(N)=O)NC(=O)[C@H](CCCNC(=N)N)NC(=O)[C@@H](NC(=O)[C@@H](NC(=O)[C@H](CC(=O)O)NC(=O)[C@H](CCC(=O)O)NC(C)=O)[C@@H](C)CC)[C@@H](C)CC)[C@@H](C)CC)C(C)C)C(=O)N[C@@H](CC(=O)O)C(=O)N[C@@H](CCCNC(=N)N)C(=O)N[C@@H](CO)C(=O)N[C@H](C(=O)N[C@@H](Cc1c[nH]c2ccccc12)C(N)=O)[C@@H](C)CC` [BID-wt, reference compound] (Ac-EDIIRNIARHLAQVGDS[Nle]DRSIW-NH2), in data set [1], the IC50 was 7.4 ± 0.9 µM.

In turn, `C=CC[C@H](NC(=O)[C@H](CCCCN)NC(=O)[C@@H]1CCCN1C(=O)[C@@H](NC(=O)[C@@H](N)CS)[C@@H](C)O)C(N)=O` [H-Cys-Thr-Pro-Lys-(allylGly)-NH2] came in with a ring closure, conversion by HPLC in data set [2] of 0%.

The molecule `C=CC[C@H](NC(=O)[C@H](CCC(N)=O)NC(=O)[C@H](Cc1c[nH]cn1)NC(=O)[C@@H](NC(=O)[C@@H](N)CS)C(C)C)C(N)=O` [H-Cys-Val-His-Gln-(allylGly)-NH2] came in with a ring closure, conversion by HPLC in data set [2] of 0%.

On to `CCCC[C@H](NC(=O)[C@@H]1CCCC[C@H](NC(=O)[C@H](C)NC(=O)[C@H](CC(C)C)NC(=O)[C@H](Cc2c[nH]cn2)NC(=O)[C@H](CCCNC(=N)N)NC(=O)[C@H](C)NC(=O)[C@@H](NC(=O)[C@H](CC(N)=O)NC(=O)[C@H](CCCNC(=N)N)NC(=O)[C@@H](NC(=O)[C@@H](NC(=O)[C@H](CC(=O)O)NC(=O)[C@H](CCC(=O)O)NC(C)=O)[C@@H](C)CC)[C@@H](C)CC)[C@@H](C)CC)C(=O)N[C@@H](C(C)C)C(=O)NCC(=O)N[C@@H](CC(=O)O)C(=O)N1)C(=O)N[C@@H](CC(=O)O)C(=O)N[C@@H](CCCNC(=N)N)C(=O)N[C@@H](CO)C(=O)N[C@H](C(=O)N[C@@H](Cc1c[nH]c2ccccc12)C(N)=O)[C@@H](C)CC` [compound 59], for which, in data set [1], the IC50 was 26 ± 4 µM. The molecule further displayed a ring closure, isolated yield in data set [3] of 49%.

As to “Ac-EDIIRNIARHLA(alG)VGDCNLDRSIW-NH2 [compound 56, starting peptide carrying the allyl glycine residue]”, the “helicity (CD spectroscopy)” value in data set [4] is 38%.
